Measurements reported in patent publication US8076449B2, “Therapeutic agents of colivelin for neurodegenerative diseases” (Tomohiro Chiba, priority 2004, dated 2011).

What was measured:
Format in all cases: in vivo, mouse
[1] = tested on: ChAT(+) neurons in the ventral gray column of ALS model mice; experiment: Immunohistochemical count of ChAT(+) neurons in spinal cord sections from dead ALS model mice; conditions: spinal cord (L1-3) sections from dead mice
Protocol: Spinal cord (L1-3) sections from wild-type (n=3, FIG. 9a), control (saline-treated) (n=5, FIG. 9b), ADNF-treated (n=3, FIG. 9c), AGA-C8R-HNG17-treated (n=14, FIG. 9d), or colivelin-treated (n=12, FIG. 9e) mice were immunostained with an anti-ChAT antibody to count ChAT(+) neurons in the ventral gray columns of the spinal cords. The sections were prepared from dead mice. The average number of ChAT(+) neurons per section was compared among the mice (FIG. 9f). Statistical analysis was conducted by one-way ANOVA, followed by Fischer's PLSD test (**p<0.01); and
(§1) The immunohistochemical analysis of neuroprotective effect was conducted using ALS model mice (n=12, FIG. 9e) administered with colivelin, in comparison to wild type (n=3, FIG. 9a), control (saline-treated) (n=5, FIG. 9b), A DNF-treated (n=3, FIG. 9c), and AGA-C8R-HNG17-treated (n=14, FIG. 9d) mice. Spinal cord (L1-3) sections from dead mice in each group were immunostained with an anti-ChAT antibody to count ChAT(+) neurons in the ventral gray column (FIG. 9f).

[2] = tested on: CD-1 mice icv-administered with Aβ (25-35); experiment: Y-maze spatial working memory impairment induced by Aβ (25-35), icv administration; conditions: 1 nmol colivelin icv, 10 nmol Aβ (25-35) icv, 3 weeks after Aβ
Protocol: The icv administration of Aβ peptides has been reported to induce spatial working memory impairment. […] In this test, the in vivo neuroprotective effect of colivelin on Aβ toxicity was examined.
Male CD-1 mice at 3 months of age were icy-administered once every three weeks with 1 nmol colivelin together with 3 μl of saline or 3 μl of saline alone into the left lateral ventricles. After 1 hour from the first administration of colivelin, 5 μl of saline together with 10 nmol Aβ (25-35) or 5 μl of saline alone was administered to the right lateral ventricles. After 3 weeks from the Aβ peptide administration, each mouse was examined for spatial working memory in a Y-maze. The Y-maze was made of three gray plastic arms (40 cm long, 12 cm high, 3 cm wide at the bottom, and 10 cm wide at the top) connected to each other at angles of 120°. The mice were individually placed at the end of one arm of the Y-maze and allowed to freely explore the arms for 8 minutes. Items examined were (1) frequency of entry into each arm, (2) total arm entry times, (3) spontaneous alternation percentage, and (4) events. The spontaneous alternation percentage was defined as a ratio of the arm choices that differed from the previous two choices (“successful choices”) to total choices during the run (“total entry minus two”, because the first two choices could not be evaluated for success or failure during the run). […]

[3] = tested on: ChAT(+) neurons in the ventral gray column of ALS model mice; experiment: Immunohistochemical count of ChAT(+) neurons in spinal cord sections from 120-day-old ALS model mice; conditions: spinal cord (L1-3) sections from 120-day-old mice
Protocol: Spinal cord (L1-3) sections from wild-type (n=3, FIG. 10A), control (saline-treated) (n=5, FIG. 10B), ADNF-treated (n=3, FIG. 10C), or colivelin-treated (n=12, FIG. 10D) mice were immunostained with an anti-ChAT antibody to count ChAT(+) neurons in the ventral gray column. The sections were prepared from 120-day-old mice (see FIG. 8d). The average number of ChAT(+) neurons per section was compared among the mice (FIG. 10E). Statistical analysis was conducted by one-way ANOVA, followed by Fischer's PLSD test (**p<0.01; *p<0.05).
as §1, with “10D)” for “9e)”, “10A),” for “9a),”, “10B), and ADNF-treated” for “9b), A DNF-treated”, “10C)” for “9c), and AGA-C8R-HNG17-treated (n=14, FIG. 9d)”, “the” for “dead”, “9f). The sections were prepared from 120-day-old mice with motor function increased by colivelin and ADNF (see FIG. 8d)” for “9f).”

## SALLRSIPAPAGASRLLLLTGEIDLP [colivelin]
[1]
  number of ChAT(+) neurons per section in the spinal cord: approximately 19
[2]
  spontaneous alternation percentage (SA %) in Y-maze: 70%
[3]
  number of ChAT(+) neurons per section in the spinal cord: approximately 32
